# Assay results as given in patent publication EP1216701A1, “Process to increase the concentration of meiosis-activating sterols (MAS) in the cholesterol synthesis and the use of potent inhibitors in the process” (Schering Aktiengesellschaft, priority 2000, dated 2002).
# How the values were obtained:
# HepG2 cells [1] = assay: Accumulation of cholesterol precursors / C29-sterols (MAS) in HepG2 cells, GC/MS (SIM); format: cell-based, Human; details: HepG2 cells; for FF-MAS Dimethylst.-trien (482 m/z) / Methylst.-dien (470 m/z) / T-MAS Dimethylst.-dien (484 m/z): bile acids 160 µM, 12-h, mean ± SD, ratio to internal standard epicoprostanol; for Dienol (m/z 486) / Enol T-MAS (m/z 484) / Trienol FF-MAS (m/z 482): ± SD; for suppression of the Δ24 reduction step (accumulation of desmosterol): absence of miconazole, 10 µM potent inhibitors or 1 µM tamoxifen for 12 h
# Experimental: (§1) Human hepatoma HepG2 cells were cultured to confluency in 60-mm dishes in phenol-red-free Dulbecco's modified Eagle's medium (DMEM) containing Pen-Strep (100 µg/ml), glucose (10 mM), sodium bicarbonate (45 mM) and glutamine (4 mM) supplemented with 10% fetal calf serum as described previously (24). At the beginning of the experiment the medium was changed to serum-free DMEM supplemented with 10% lipid-free "controlled process serum replacement" (CPSR-1). Compounds were added from ethanolic stock solutions to produce final ethanol concentrations of 0.1-0.3% v/v. Controls received the same amount of ethanol. Aminotriazole was added in an aqueous solution. Slices of rat testis (25 µm; 25-50 mg wet weight) were incubated under the same conditions in a shaking water bath (37°C). For isotopomer spectral analysis (ISA) of lathosterol, 1-^13C-acetate was added in an aqueous solution to a final concentration of 1 mM.
# (§2) Cells were washed three times with ice cold PBS (pH 7.4) (once with 2 mg/ml BSA and twice with PBS alone). Epicoprostanol (1 µg in 50 µl of hexane) was added as internal standard to each sample. Sterols were extracted in hexane/isopropanol (3:2 v/v; two times with 4 ml). After drying under nitrogen and alkaline hydrolysis (1 N NaOH in 80% ethanol, 1.5 h at 70°C), the sterols were extracted with cyclohexane (two times with 3 ml). After drying under nitrogen, sterols were converted to their trimethylsilyl (TMS) derivatives by adding 100 µl bis(trimethylsilyl)trifluoracetamide (Pierce)/n-decane (1:1; v/v) and heating for 1 h at 70°C in a conical glass tube. This solution (1-2 µl) was used for gas-chromatography/mass-spectrometry (GC/MS). Rat testes (0.05-0.15 g) were homogenized manually, and lipids were extracted in hexane/isopropanol (3:2 v/v; two times with 4 ml). The extracts were deproteinized with acetone (3 ml) and processed as described above. The observed sterol levels in testis were normalized to correspond to 0.1 g of tissue (wet weight).
# (§3) Gas-chromatography was done in the splitless mode with temperature programming as follows: 150°C for 1 min, followed by 20°C/min up to 260°C and 10°C/min up to 280°C (hold for 15 min). Mass spectral data were collected either in the full-scan mode (m/z 50-550) or by selective ion monitoring (SIM). For SIM analyses the electron multiplier voltage was raised by 300 V after the elution of lathosterol to increase the sensitivity of detection for lanosterol, dihydrolanosterol, methylsterols, dimethylsterols and plant sterols. The internal standard epicoprostanol was monitored at m/z 370. […] Peak integration was performed manually, and sterols were quantified from SIM analyses against the internal standard. Unless stated otherwise, MAS amounts are given as a percentage of the control.
# liver slices = assay: Influence of bile acids on methylsterols and dimethylsterols in liver slices; format: cell-based; details: bile acids 160 µM for 9-h, n=2 for UDCA, CDCA, DCA, n=3 for CA and LCA, ratio to campesterol
# Experimental: as §2, §3
# Δ24-reductase = target: T1, Δ24-reductase (Homo sapiens, UniProt Q15392); assay: Δ24-reductase assay (conversion of lanosterol to dihydrolanosterol in the presence of miconazole); format: cell-based; details: HepG2 cells; conversion of lanosterol to dihydrolanosterol with added miconazole
# T1 construct: endogenous in cells; host or cells: HepG2
# T1 sequence (Q15392 23-516): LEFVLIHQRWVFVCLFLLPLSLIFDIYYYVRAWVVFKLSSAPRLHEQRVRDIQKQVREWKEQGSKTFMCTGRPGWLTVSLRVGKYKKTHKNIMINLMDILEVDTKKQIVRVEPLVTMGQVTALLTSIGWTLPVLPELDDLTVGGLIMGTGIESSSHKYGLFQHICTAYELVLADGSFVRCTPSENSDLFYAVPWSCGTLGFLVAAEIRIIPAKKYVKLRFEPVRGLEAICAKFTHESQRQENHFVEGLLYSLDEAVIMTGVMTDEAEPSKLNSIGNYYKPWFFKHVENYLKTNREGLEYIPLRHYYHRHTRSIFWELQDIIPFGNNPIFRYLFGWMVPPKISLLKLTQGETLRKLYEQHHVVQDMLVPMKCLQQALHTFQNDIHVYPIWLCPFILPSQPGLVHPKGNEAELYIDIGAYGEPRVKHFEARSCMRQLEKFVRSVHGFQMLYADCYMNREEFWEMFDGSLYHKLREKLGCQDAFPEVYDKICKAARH
# Experimental: HepG2 cells were incubated for 12 h with 10 µM simvastatin (a kind gift from M. Stapff (MSD, Germany)) to deplete cholesterol precursors. Thereafter, the medium was changed to one containing 10 µM simvastatin, 10 µM miconazole (an inhibitor of 14α-demethylation) and 6 µg/dish lanosterol. After 12 h incubation, neutral sterols were extracted as described above, and the samples were monitored for lanosterol (m/z 498 (M^+) and m/z 393 (M-TMSOH-CH3)) and dihydrolanosterol (m/z 500 (M^+) and m/z 395 (M-TMSOH-CH3)) by GC/MS. Dihydrolanosterol was quantified by comparing the ratio of SIM abundances at m/z 395 and 370 (epicoprostanol) against a standard curve constructed from SIM results on mixtures of authentic dihydrolanosterol and epicoprostanol. Desmosterol was quantified analogously by SIM.
# HepG2 cells [2] = assay: Isotopomer spectral analysis (ISA) of flux of 13C-acetate to lathosterol and cholesterol; format: cell-based, Human; details: 10 µM, 12 h, 1 mM 1-13C-acetate
# Experimental: as §1
# Analyses were performed on a Hewlett-Packard GC/MS system (5890 series II GC interfaced to a 5971 mass selective detector) equipped with a DB-XLB column (30 m x 0.25 mm i.d. x 0.25 µm film; J&W). Gas-chromatography was done in the splitless mode with temperature programming as follows: 150°C for 1 min, followed by 20°C/min up to 260°C and 10°C/min up to 280°C (hold for 15 min). Mass spectral data were collected either in the full-scan mode (m/z 50-550) or by selective ion monitoring (SIM). For SIM analyses the electron multiplier voltage was raised by 300 V after the elution of lathosterol to increase the sensitivity of detection for lanosterol, dihydrolanosterol, methylsterols, dimethylsterols and plant sterols. The internal standard epicoprostanol was monitored at m/z 370. In unlabeled experiments, cholesterol precursors and plant sterols were monitored by the following ions: desmosterol (m/z 456; 441 and 351); Δ8-cholestenol (m/z 458); lathosterol (m/z 458); monounsaturated methylsterols (m/z 472); diunsaturated methylsterols (m/z 470); monounsaturated dimethylsterols (m/z 486); diunsaturated dimethylsterols (m/z 484); triunsaturated dimethylsterols (m/z 482); lanosterol (m/z 498 and 393) and dihydrolanosterol (m/z 500 and 395). Peak integration was performed manually, and sterols were quantified from SIM analyses against the internal standard. Unless stated otherwise, MAS amounts are given as a percentage of the control. When 1-^13C-acetate was used in the culture medium for ISA, up to 10 ions (M+0- M+10) were monitored for the TMS derivatives of lathosterol (m/z 458-468), T-MAS (m/z 484-494) and FF-MAS (m/z 482-492).
# ISA was carried out as described previously (25) by incubating cells with 1-13C-acetate. The isotopomer distribution in sterols synthesized from 1-^13C-acetate provided the fractional synthesis rate g(t) of the product and the enrichment D of the labeled precursor pool. These parameters were calculated by nonlinear regression analysis as described previously (25,26). Because here we used the molecular ions containing the TMS group for the ISA calculations, the ISA program was modified to correct for the additional C, H and Si atoms from the derivatization reagent. Statistical differences were assessed by Student's t-test and considered significant for P<0.05.
# [3] = Conc. 1 µM (combinations 1 + 1 µM), 24 h, n=3
# [4] = Conc. 10 µM (combinations 10 + 10 µM), 12 h, n=2
compound,measurement,setting,value
"C[C@H](CCC(=O)O)[C@H]1CC[C@H]2[C@@H]3[C@@H](O)C[C@@H]4C[C@H](O)CC[C@]4(C)[C@H]3CC[C@]12C [UDCA, Ursodeoxycholic acid]",FF-MAS Dimethylst.-trien (482 m/z),HepG2 cells [1]; n=3,309 ± 51 % of control
same,Methylst.-dien (470 m/z),HepG2 cells [1]; n=3,509 ± 19 % of control
same,T-MAS Dimethylst.-dien (484 m/z),HepG2 cells [1]; n=3,655 ± 84 % of control
same,FF-MAS Dimethylst.-trien (482 m/z),liver slices,204 % of control
same,Methylst.-dien (470 m/z),liver slices,235 % of control
same,T-MAS Dimethylst.-dien (484 m/z),liver slices,633 % of control
CC(=O)[C@H]1CC[C@H]2[C@@H]3CC=C4C[C@@H](O)CC[C@]4(C)[C@H]3CC[C@]12C [Pregnenolone],Dienol (m/z 486),HepG2 cells [1]; [3],110 ± 9 % of control
same,Enol T-MAS (m/z 484),HepG2 cells [1]; [3],223 ± 11 % of control
same,Trienol FF-MAS (m/z 482),HepG2 cells [1]; [3],166 ± 28 % of control
same,Dienol (m/z 486),HepG2 cells [1]; [4],4 ± 1 % of control
same,Enol T-MAS (m/z 484),HepG2 cells [1]; [4],308 ± 40 % of control
same,Trienol FF-MAS (m/z 482),HepG2 cells [1]; [4],213 ± 15 % of control
same,suppression of the Δ24 reduction step (accumulation of desmosterol),HepG2 cells [1],strongly suppressed
same,order of suppression of Δ24 reduction,Δ24-reductase,pregnenolone > progesterone > 17α-OH-pregnenolone >> 17α-OH-progesterone
same,lowering of the total amount of lathosterol,HepG2 cells [2],ca. 50%
same,reduction of de novo lathosterol synthesis,HepG2 cells [2],more than 60%
"C[C@H](CCC(=O)O)[C@H]1CC[C@H]2[C@@H]3CC[C@@H]4C[C@H](O)CC[C@]4(C)[C@H]3C[C@H](O)[C@]12C [DCA, Deoxycholic acid]",FF-MAS Dimethylst.-trien (482 m/z),HepG2 cells [1]; n=3,226 ± 17 % of control
same,Methylst.-dien (470 m/z),HepG2 cells [1]; n=3,211 ± 6 % of control
same,T-MAS Dimethylst.-dien (484 m/z),HepG2 cells [1]; n=3,320 ± 32 % of control
same,FF-MAS Dimethylst.-trien (482 m/z),liver slices,103 % of control
same,Methylst.-dien (470 m/z),liver slices,144 % of control
same,T-MAS Dimethylst.-dien (484 m/z),liver slices,210 % of control
COc1ccc(CCN(C)CCCC(C#N)(c2ccc(OC)c(OC)c2)C(C)C)cc1OC (stereo not shown) [Verapamil],Dienol (m/z 486),HepG2 cells [1]; [4],18 ± 4 % of control
same,Enol T-MAS (m/z 484),HepG2 cells [1]; [4],416 ± 79 % of control
same,Trienol FF-MAS (m/z 482),HepG2 cells [1]; [4],498 ± 103 % of control
"C[C@]12CC[C@H]3[C@@H](CCC4=CC(=O)CC[C@@]43C)[C@@H]1CC[C@@H]2O [testosterone, Testosterone]",changes in the cholesterol precursor pattern,"HepG2 cells [1]; at 10 µM, compared to potent inhibitors, data not shown",only minor changes
"CC(=O)[C@@]1(O)CC[C@H]2[C@@H]3CC=C4C[C@@H](O)CC[C@]4(C)[C@H]3CC[C@@]21C [17α-OH-Pregnenolone, 17α-Hydroxy-pregnenolone]",Dienol (m/z 486),HepG2 cells [1]; [4],52 ± 6 % of control
same,Enol T-MAS (m/z 484),HepG2 cells [1]; [4],780 ± 57 % of control
same,Trienol FF-MAS (m/z 482),HepG2 cells [1]; [4],242 ± 19 % of control
same,suppression of the Δ24 reduction step (accumulation of desmosterol),HepG2 cells [1],strongly suppressed
same,order of suppression of Δ24 reduction,Δ24-reductase,pregnenolone > progesterone > 17α-OH-pregnenolone >> 17α-OH-progesterone
Medroxyprogesterone,Dienol (m/z 486),HepG2 cells [1]; [4],509 ± 50 % of control
same,Enol T-MAS (m/z 484),HepG2 cells [1]; [4],1181 ± 90 % of control
same,Trienol FF-MAS (m/z 482),HepG2 cells [1]; [4],227 ± 11 % of control
